Tests used:
[1] = rat; cited from earlier work
[2] = 0.05 M phosphate-buffered saline (PBS) (pH 7.4) at 37° C.; cited from earlier work
[3] = Body weight / toxicity in the A498-luc xenograft study; format: in vivo, mouse
Method: (§1) To study the toxicity and therapeutic effect, in vivo studies were conducted on the micellar nanocomplexes. A subcutaneous renal cell carcinoma model was established. Adult female Balb/c athymic, immunoincompetent nude mice (average weight=19 g, age=6-8 weeks) were used.
To study the therapeutic effect of SU/PEG-EGCG micellar nanocomplexes by intravenous injection, a xenograft tumor model was established by inoculating 6×10^6 A498-luc cells subcutaneously into the root of the left thigh of the mouse. On day 6 after tumor inoculation, the animals were divided into four groups for tail vein injection of various solutions (n=8 per group) twice weekly for 5 weeks, while one group received daily SU gavaging at 60 mg/kg. For the tail vein injection, a volume of 200 μl of sample solution was used.
To monitor bioluminescent signals from A498-luc cells, isoflurane gas-anesthetized animals were injected intraperitoneally with 200 μl of D-luciferin (5 mg ml^−1, Promega) in PBS, and placed on a warmed stage (30° C.) inside the camera box of the IVIS imaging system (Xenogen, Alameda, Calif., USA) with a CCD camera. […] Images and measurements of luminescent signals were acquired and analyzed with the Xenogen imaging software v3.2 and quantified as photons/s. Tumor size and body weight were measured on a weekly basis. […]

[4] = Body weight in the ACHN xenograft oral study; format: in vivo, mouse; details: oral gavage daily
Method: as §1
To investigate the therapeutic effect of SU/PEG-mEGCG MNC via oral administration, a xenograft tumor model was established by inoculating 4×10^6 ACHN cells suspended in 100 μl of PBS and 100 μl of Matrigel (BD Bioscience) subcutaneously into the root of the right thigh of the mouse. Once the tumors reached a volume of 200 mm^3, the animals were divided into four groups for oral gavage of various solutions (n=8 per group) daily for 5 weeks: control (citrate buffer pH5), SU/PEG-mEGCG 8:1 (SU at 15 mg/kg), SU at 15 and 40 mg/kg. Tumors were measured twice weekly with a digital caliper, and the tumor volumes (mm^3) were calculated from the following formula: volume=(length×width^2)/2 (FIGS. 16 and 17).

SMILES: O=C(O[C@@H]1Cc2c(O)cc(O)cc2O[C@@H]1c1cc(O)c(O)c(O)c1)c1cc(O)c(O)c(O)c1 [EGCG, (−)-Epigallocatechin-3-gallate]
- effect of EGCG administration on plasma concentrations of SU [1]: markedly reduced
- half-life [2]: less than 30 minutes

SMILES: CCN(CC)CCNC(=O)c1c(C)[nH]c(/C=C2\C(=O)Nc3ccc(F)cc32)c1C [SU, Sunitinib]
- body weight ([3]; daily oral gavage 60 mg/kg, one week after commencement of treatment): significant weight loss
- toxicity of oral dose ([3]; mouse, in vivo, po, 60 mg/kg/day): too toxic
- weight loss ([4]; SU at 15 mg/kg): not observed
- body weight ([4]; SU at 40 mg/kg): significant weight loss

Reference: patent US10463646B2, “Micellar polymer-flavonoid conjugate nanocomplex” (Agency for Science, Technology and Research, priority 2014, dated 2019)
